In US6737383B1, “Herbicidal oxadiazolidines” (priority 1999, dated 2004):

Experiments:
morningglory = test: Test A morningglory; assay type: in vivo, Ipomoea spp.; details: 0 to 10 scale where 0 is no effect and 10 is complete control
Outline: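 Ratings came from visual comparison with untreated plants about eleven days after treatment, scored 0 for no effect through 10 for complete control. Both soil-drench preemergence and runoff-spray postemergence applications were made at the same time.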

common ragweed = test: Test C postemergence common ragweed; assay type: in vivo, Ambrosia elatior; details: 0 to 100 scale, 0 no effect, 100 complete control
Outline: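 Soil: sandy loam/potting mix 60:40. Treatment: postemergence, solvent + surfactant formulation. Readout: visual control score 0–100 vs untreated at ~14–21 days.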

ivyleaf morningglory = test: Test C postemergence ivyleaf morningglory; assay type: in vivo, Ipomoea hederacea; details: 0 to 100 scale, 0 no effect, 100 complete control
Protocol: (§1) Compounds evaluated in this test were formulated in a non-phytotoxic solvent mixture which included a surfactant and applied to plants that were grown for various periods of time before treatment (postemergence application). A mixture of sandy loam soil and greenhouse potting mix in a 60:40 ratio was used for the postemergence test.
(§2) Plantings of these crops and weed species were adjusted to produce plants of appropriate size for the postemergence test. All plant species were grown using normal greenhouse practices. Crop and weed species include arrowleaf sida (Sida rhombifolia), barnyardgrass (Echinochloa crus-galli), cocklebur (Xanthium strumarium), common ragweed (Ambrosia elatior), corn (Zea mays), cotton (Gossypium hirsutum), eastern black nightshade (Solanum ptycanthum), fall panicum (Panicum dichotomiflorum), field bindweed (Convolvulus arvensis), giant foxtail (Setaria faberii), hairy beggarticks (Bidens pilosa), ivyleaf morningglory (Ipomoea hederacea), johnsongrass (Sorghum halepense), ladysthumb smartweed (Polygonum persicaria), lambsquarters (Chenopodium album), large crabgrass (Digitaria sanguinalis), purple nutsedge (Cyperus rotundus), redroot pigweed (Amaranthus retroflexus), soybean (Glycine max), surinam grass (Brachiaria decumbens), velvetleaf (Abutilon theophrasti) and wild poinsettia (Euphorbia heterophylla).
(§3) Treated plants and untreated controls were maintained in a greenhouse for approximately 14, to 21 days, after which all treated plants were compared to untreated controls and visually evaluated. Plant response ratings, summarized in Table C, were based upon a 0 to 100 scale where 0 was no effect and 100 was complete control. A dash response (−) means no test result.

wild poinsettia = test: Test C postemergence wild poinsettia; assay type: in vivo, Euphorbia heterophylla; details: 0 to 100 scale, 0 no effect, 100 complete control
Protocol: as §1, §2, §3

deadnettle = test: Test E deadnettle; assay type: in vivo, Lamium amplexicaule; details: Postemergence
Protocol: as §1, with “in the 1- to 4-leaf stage” for “grown for various periods of time before treatment”
(§4) Plantings of these crops and weed species were adjusted to produce plants of appropriate size for the postemergence test. All plant species were grown using normal greenhouse practices. Crop and weed species include annual bluegrass (Poa annua), blackgrass (Alopecurus myosuroides), black nightshade (Solanum nigra), chickweed (Stellaria media), common poppy (Papaver rhoeas), deadnettle (Lamium amplexicaule), downy brome (Bromus tectorum), field violet (Viola arvensis), galium (Galium aparine), green foxtail (Setaria viridis), Italian ryegrass (Lolium multiflorum), jointed goatgrass (Aegilops cylindrica), kochia (Kochia scoparia), lambsquarters (Chenopodium album), littleseed canarygrass (Phalaris minor), rape (Brassica napus), redroot pigweed (Amaranthus retroflexus), Russian thistle (Salsola kali), scentless chamomile (Matricaria inodora), spring barley (Hordeum vulgare), sugar beet (Beta vulgaris), sunflower (Helianthus annuus), ivyleaf speedwell (Veronica hederaefolia), spring wheat (Triticum aestivum), winter wheat (Triticum aestivum), wild buckwheat (Polygonum convolvulus), wild mustard (Sinapis arvensis), wild oat (Avena fatua), windgrass (Apera spica-venti) and winter barley (Hordeum vulgare).
(§5) Treated plants and untreated controls were maintained in a greenhouse for approximately 21 to 28 days, after which all treated plants were compared to untreated controls and visually evaluated. […] A dash response (-) means no test result.

kochia = test: Test E kochia; assay type: in vivo, Kochia scoparia; details: Postemergence
Protocol: as §1, with “in the 1- to 4-leaf stage” for “grown for various periods of time before treatment”
as §4, §5

lambsquarters = test: Test E lambsquarters; assay type: in vivo, Chenopodium album; details: Postemergence
Outline: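 Plants were grown under normal greenhouse practice; for postemergence, in sandy loam soil mixed 60:40 with potting mix, treated at the 1- to 4-leaf stage. The compound was in a non-phytotoxic solvent carrying a surfactant. After roughly 21 to 28 days plants were scored visually against untreated plants.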

ivyleaf speedwell = test: Test E postemergence ivyleaf speedwell; assay type: in vivo, Veronica hederaefolia
Protocol: as §1, with “in the 1- to 4-leaf stage” for “grown for various periods of time before treatment”
as §4, §5

rape = test: Test E rape; assay type: in vivo, Brassica napus; details: Preemergence
Green foxtail = test: Test D green foxtail; assay type: in vivo
Source text: Seeds, tubers, or plant parts of Alexandergrass (Brachiaria plantaginea), bermuda-grass (Cynodon dactylon), common pursiane (Portulaca oleracea), common ragweed (Ambrosia elatior), common groundsel (Senecio vulgaris), dallisgrass (Paspalum dilatatum), goosegrass (Eleusine indica), guineagrass (Panicum maximum), itchgrass (Rottboellia exaltata), Johnson grass (Sorghum halepense), large crabgrass (Digitaria sanguinalis), pitted morningglory (Ipomoea lacunosa), purple nutsedge (Cyperus rotundus), sandbur (Cenchrus echinatus), sourgrass (Trichachne insularis), Spanishneedles (Bidens bipinnata), surinam grass (Brachiaria decumbens) and tall mallow (Malva sylvestris) were planted into greenhouse pots of flats containing greenhouse planting medium. Plant species were grown in separate pots or individual compartments. Preemergence applications were made within one day of planting the seed or plant part.
Test chemicals were formulated in a non-phytotoxic solvent mixture which included a surfactant and applied preemergence to the surface of the pot containing seeds in a sandy loam soil. Untreated control pots and treated pots were placed in the greenhouse for growth and visually evaluated for injury 14 to 21 days after herbicide application. Plant response ratings, summarized in Table C, are based on a 0 to 100 scale where 0 is no injury and 100 is complete control. A dash (−) response means no test result.

[1] = Rate 250 g/ha, 0 to 100 scale (0 no effect, 100 complete control)
[2] = Rate 500 g/ha, 0 to 100 scale, 0 no effect, 100 complete control
[3] = Rate 125 g/ha, 0 to 100 scale (0 no effect, 100 complete control)
[4] = Rate 64 g/ha, Preemergence; 0 to 100 scale, 0 no injury, 100 complete control
[5] = Rate 125 g/ha, Preemergence; 0 to 100 scale, 0 no injury, 100 complete control

## CCOC(=O)Cn1c(=O)on(C(=O)N(c2ccc(F)cc2)C(C)C)c1=O [Compound 128]
morningglory; Postemergence, Rate 1000 g/ha
  Plant response rating, Morningglory: 0
morningglory; Pre-emergence, Rate 2000 g/ha
  Plant response rating, Morningglory: 0

## CCn1c(=O)on(C(=O)N(c2ccc(F)cc2F)C(C)C)c1=O [Compound 116]
Common ragweed; Rate 140 g/ha
  Plant response rating Common ragweed: 0
Common ragweed; Rate 280 g/ha
  Plant response rating Common ragweed: 0
Common ragweed; Rate 560 g/ha
  Plant response rating Common ragweed: 0
Common ragweed; Rate 1120 g/ha
  Plant response rating Common ragweed: 0
Ivyleaf morningglory; Rate 140 g/ha
  Plant response rating I. morningglory: 0
Ivyleaf morningglory; Rate 280 g/ha
  Plant response rating I. morningglory: 0
Ivyleaf morningglory; Rate 560 g/ha
  Plant response rating I. morningglory: 0
Ivyleaf morningglory; Rate 1120 g/ha
  Plant response rating I. morningglory: 20
Wild poinsettia; Rate 140 g/ha
  Plant response rating Wild poinsettia: 0
Wild poinsettia; Rate 280 g/ha
  Plant response rating Wild poinsettia: 0
Wild poinsettia; Rate 560 g/ha
  Plant response rating Wild poinsettia: 0
deadnettle; Rate 62 g/ha, 0 to 100 scale
  Plant response rating, Deadnettle: 0
deadnettle; Rate 125 g/ha, 0 to 100 scale
  Plant response rating, Deadnettle: 0
deadnettle; [1]
  Plant response rating, Deadnettle: 20
deadnettle; [2]
  Plant response rating, Deadnettle: 50
kochia; Rate 62 g/ha, 0 to 100 scale
  Plant response rating, Kochia: 0
kochia; Rate 125 g/ha, 0 to 100 scale
  Plant response rating, Kochia: 0
kochia; [1]
  Plant response rating, Kochia: 0
kochia; [2]
  Plant response rating, Kochia: 0
lambsquarters; Rate 62 g/ha, 0 to 100 scale
  Plant response rating, Lambsquarters: 20
lambsquarters; Rate 125 g/ha, 0 to 100 scale
  Plant response rating, Lambsquarters: 30
lambsquarters; [1]
  Plant response rating, Lambsquarters: 0
lambsquarters; [2]
  Plant response rating, Lambsquarters: 0
Ivyleaf speedwell; Rate 125 g/ha, 0 to 100 scale
  Plant response rating, Veronica hedera: 0
Ivyleaf speedwell; [1]
  Plant response rating, Veronica hedera: 0
Ivyleaf speedwell; [2]
  Plant response rating, Veronica hedera: 70
rape; [3]
  Plant response rating, Rape: 60
rape; Rate 250 g/ha, 0 to 100 scale
  Plant response rating, Rape: 100
rape; Rate 500 g/ha, 0 to 100 scale where 0 is no effect and 100 is complete control
  Plant response rating, Rape: 100

## CCn1c(=O)on(C(=O)N(c2ccc(F)cc2)C(C)C)c1=O [Compound 107]
Common ragweed; Rate 140 g/ha
  Plant response rating Common ragweed: 0
Common ragweed; Rate 280 g/ha
  Plant response rating Common ragweed: 50
Common ragweed; Rate 560 g/ha
  Plant response rating Common ragweed: 50
Common ragweed; Rate 1120 g/ha
  Plant response rating Common ragweed: 50
Ivyleaf morningglory; Rate 140 g/ha
  Plant response rating I. morningglory: 10
Ivyleaf morningglory; Rate 280 g/ha
  Plant response rating I. morningglory: 30
Ivyleaf morningglory; Rate 560 g/ha
  Plant response rating I. morningglory: 30
Ivyleaf morningglory; Rate 1120 g/ha
  Plant response rating I. morningglory: 95
Wild poinsettia; Rate 140 g/ha
  Plant response rating Wild poinsettia: 0
Wild poinsettia; Rate 280 g/ha
  Plant response rating Wild poinsettia: 15
Wild poinsettia; Rate 560 g/ha
  Plant response rating Wild poinsettia: 40
Wild poinsettia; Rate 1120 g/ha
  Plant response rating Wild poinsettia: 80
deadnettle; Rate 62 g/ha, 0 to 100 scale
  Plant response rating, Deadnettle: 0
deadnettle; Rate 125 g/ha, 0 to 100 scale
  Plant response rating, Deadnettle: 5
deadnettle; [1]
  Plant response rating, Deadnettle: 50
kochia; Rate 62 g/ha, 0 to 100 scale
  Plant response rating, Kochia: 5
kochia; Rate 125 g/ha, 0 to 100 scale
  Plant response rating, Kochia: 20
kochia; [1]
  Plant response rating, Kochia: 15
lambsquarters; Rate 62 g/ha, 0 to 100 scale
  Plant response rating, Lambsquarters: 15
lambsquarters; Rate 125 g/ha, 0 to 100 scale
  Plant response rating, Lambsquarters: 15
lambsquarters; [1]
  Plant response rating, Lambsquarters: 5
Ivyleaf speedwell; Rate 62 g/ha, 0 to 100 scale
  Plant response rating, Veronica hedera: 10
Ivyleaf speedwell; Rate 125 g/ha, 0 to 100 scale
  Plant response rating, Veronica hedera: 0
Ivyleaf speedwell; [1]
  Plant response rating, Veronica hedera: 10
Green foxtail; Preemergence; Rate 16 g/ha; 0 to 100 scale, 0 no injury, 100 complete control
  Plant response rating, Green foxtail: 100
Green foxtail; Preemergence; Rate 32 g/ha; 0 to 100 scale, 0 no injury, 100 complete control
  Plant response rating, Green foxtail: 100
Green foxtail; Rate 16 g/ha; Preemergence; 0 to 100 scale, 0 no injury, 100 complete control
  Plant response rating, Green foxtail: 100
Green foxtail; Rate 32 g/ha; Preemergence; 0 to 100 scale, 0 no injury, 100 complete control
  Plant response rating, Green foxtail: 100
Green foxtail; [4]
  Green foxtail plant response rating: 100
  Plant response rating, Green foxtail: 100
Green foxtail; [5]
  Green foxtail plant response rating: 100
  Plant response rating, Green foxtail: 100
Green foxtail; Rate 250 g/ha; Preemergence; 0 to 100 scale
  Plant response rating, Green foxtail: 100
Green foxtail; Rate 500 g/ha, Preemergence; 0 to 100 scale
  Plant response rating, Green foxtail: 100
rape; Rate 62 g/ha, 0 to 100 scale, 0 no effect, 100 complete control
  Plant response rating, Rape: 60
rape; [3]
  Plant response rating, Rape: 70
rape; Rate 250 g/ha, 0 to 100 scale
  Plant response rating, Rape: 100

## Cc1ccccc1Cn1c(=O)on(C(=O)N(c2ccc(Cl)cc2)C(C)C)c1=O [Compound 136]
morningglory; Postemergence, Rate 1000 g/ha
  Plant response rating, Morningglory: 9
morningglory; Pre-emergence, Rate 2000 g/ha
  Plant response rating, Morningglory: 0

## C=C(C)Cn1c(=O)on(C(=O)N(c2ccc(F)cc2)C(C)C)c1=O [Compound 139]
Green foxtail; [4]
  Green foxtail plant response rating: 98
  Plant response rating, Green foxtail: 98
